Assays:
Cholinesterase = Cholinesterase (Equus caballus, UniProt P81908); experiment: Inhibition of equine serum BuChE using butyrylthiocholine chloride as substrate measured after 15 mins by Ellman's method
Acetylcholinesterase [1] = target: Acetylcholinesterase (Electrophorus electricus, UniProt O42275); experiment: Inhibition of electric eel AChE using acetylthiocholine chloride as substrate measured after 15 mins by Ellman's method; format: ADME
[2] = target: Amyloid-beta precursor protein (Homo sapiens) (UniProt P05067); experiment: Inhibition of amyloid beta (1 to 42) (unknown origin) self-aggregation at 25 uM after 24 hrs by thioflavin-T fluorescence assay relative to control
Acetylcholinesterase [3] = target: T1, Acetylcholinesterase (Rattus norvegicus, UniProt P37136); experiment: Inhibition of AChE in rat cortex homogenates at 25 umol/l using acetylthiocholine chloride as substrate measured after 15 mins by Ellman's method; conditions: 0.25 h
T1 sequence (P37136 whole entry): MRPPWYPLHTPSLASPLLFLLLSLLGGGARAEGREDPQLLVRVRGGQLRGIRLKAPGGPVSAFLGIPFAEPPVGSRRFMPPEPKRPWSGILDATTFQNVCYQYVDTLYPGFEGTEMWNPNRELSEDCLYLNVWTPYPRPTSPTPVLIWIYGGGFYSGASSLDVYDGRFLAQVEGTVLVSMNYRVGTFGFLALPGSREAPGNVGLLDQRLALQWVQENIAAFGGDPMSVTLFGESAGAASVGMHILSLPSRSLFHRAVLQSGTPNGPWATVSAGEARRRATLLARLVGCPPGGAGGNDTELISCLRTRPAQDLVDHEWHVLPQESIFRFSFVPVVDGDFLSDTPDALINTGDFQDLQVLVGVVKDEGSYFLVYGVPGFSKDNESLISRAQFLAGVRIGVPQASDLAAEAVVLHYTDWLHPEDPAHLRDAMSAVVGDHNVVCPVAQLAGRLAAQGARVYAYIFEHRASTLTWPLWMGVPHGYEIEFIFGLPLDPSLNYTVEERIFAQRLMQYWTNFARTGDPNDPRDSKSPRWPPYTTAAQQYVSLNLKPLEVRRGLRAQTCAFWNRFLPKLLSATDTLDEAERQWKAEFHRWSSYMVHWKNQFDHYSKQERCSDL

[4] = Inhibition of BuChE in rat serum using butyrylthiocholine chloride as substrate measured after 15 mins by Ellman's method; conditions: 0.25 h
[5] = Selectivity index, ratio of IC50 for electric eel AChE to IC50 for equine serum BuChE
[6] = Antioxidant activity assessed as inhibition of AAPH-induced peroxyl radical generation measured as trolox equivalent at 1 to 10 uM preincubated for 15 mins followed by AAPH addition measured every minute for 90 mins by ORAC-FL assay; format: functional
Acetylcholinesterase [7] = target: T1, Acetylcholinesterase; experiment: Inhibition of AChE in rat cortex homogenates using acetylthiocholine chloride as substrate measured after 15 mins by Ellman's method; format: ADME

Sequence of Cholinesterase (P81908 whole entry): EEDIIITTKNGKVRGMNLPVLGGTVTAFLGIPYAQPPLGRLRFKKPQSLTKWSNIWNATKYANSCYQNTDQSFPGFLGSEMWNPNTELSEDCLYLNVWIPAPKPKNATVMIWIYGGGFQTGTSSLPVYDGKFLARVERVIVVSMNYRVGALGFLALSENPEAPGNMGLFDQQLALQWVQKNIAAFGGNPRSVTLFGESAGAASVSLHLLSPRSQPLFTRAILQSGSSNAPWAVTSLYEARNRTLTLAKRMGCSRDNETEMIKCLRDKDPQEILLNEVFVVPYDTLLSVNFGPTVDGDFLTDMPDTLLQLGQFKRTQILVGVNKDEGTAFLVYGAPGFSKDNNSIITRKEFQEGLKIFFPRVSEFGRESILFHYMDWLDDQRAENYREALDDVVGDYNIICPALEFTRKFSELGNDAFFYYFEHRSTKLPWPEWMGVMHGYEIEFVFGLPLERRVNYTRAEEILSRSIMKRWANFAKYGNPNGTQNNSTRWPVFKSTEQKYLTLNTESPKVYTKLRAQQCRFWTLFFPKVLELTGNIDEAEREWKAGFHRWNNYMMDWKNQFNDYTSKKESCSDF
Sequence of Amyloid-beta precursor protein (Homo sapiens) (P05067 whole entry): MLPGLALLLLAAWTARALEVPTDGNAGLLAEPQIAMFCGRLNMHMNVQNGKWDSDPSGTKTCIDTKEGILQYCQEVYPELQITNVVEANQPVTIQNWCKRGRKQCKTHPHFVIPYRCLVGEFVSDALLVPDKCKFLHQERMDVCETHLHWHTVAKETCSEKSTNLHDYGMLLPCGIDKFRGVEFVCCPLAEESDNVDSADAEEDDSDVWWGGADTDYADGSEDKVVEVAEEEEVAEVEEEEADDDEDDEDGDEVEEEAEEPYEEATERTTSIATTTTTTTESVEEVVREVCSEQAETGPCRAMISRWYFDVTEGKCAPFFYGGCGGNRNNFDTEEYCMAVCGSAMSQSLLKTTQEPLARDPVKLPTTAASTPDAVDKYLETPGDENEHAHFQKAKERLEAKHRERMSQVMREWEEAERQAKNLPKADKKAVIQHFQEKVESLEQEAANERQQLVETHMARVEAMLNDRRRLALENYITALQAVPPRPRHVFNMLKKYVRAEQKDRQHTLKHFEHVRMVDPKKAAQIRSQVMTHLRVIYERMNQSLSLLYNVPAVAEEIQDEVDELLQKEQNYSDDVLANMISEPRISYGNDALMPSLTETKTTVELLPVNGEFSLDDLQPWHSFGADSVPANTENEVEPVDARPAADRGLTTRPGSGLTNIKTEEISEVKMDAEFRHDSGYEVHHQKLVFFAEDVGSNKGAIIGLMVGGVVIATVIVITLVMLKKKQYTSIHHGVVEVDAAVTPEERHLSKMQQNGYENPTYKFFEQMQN
Sequence of Acetylcholinesterase (Electrophorus electricus, UniProt O42275) (O42275 whole entry): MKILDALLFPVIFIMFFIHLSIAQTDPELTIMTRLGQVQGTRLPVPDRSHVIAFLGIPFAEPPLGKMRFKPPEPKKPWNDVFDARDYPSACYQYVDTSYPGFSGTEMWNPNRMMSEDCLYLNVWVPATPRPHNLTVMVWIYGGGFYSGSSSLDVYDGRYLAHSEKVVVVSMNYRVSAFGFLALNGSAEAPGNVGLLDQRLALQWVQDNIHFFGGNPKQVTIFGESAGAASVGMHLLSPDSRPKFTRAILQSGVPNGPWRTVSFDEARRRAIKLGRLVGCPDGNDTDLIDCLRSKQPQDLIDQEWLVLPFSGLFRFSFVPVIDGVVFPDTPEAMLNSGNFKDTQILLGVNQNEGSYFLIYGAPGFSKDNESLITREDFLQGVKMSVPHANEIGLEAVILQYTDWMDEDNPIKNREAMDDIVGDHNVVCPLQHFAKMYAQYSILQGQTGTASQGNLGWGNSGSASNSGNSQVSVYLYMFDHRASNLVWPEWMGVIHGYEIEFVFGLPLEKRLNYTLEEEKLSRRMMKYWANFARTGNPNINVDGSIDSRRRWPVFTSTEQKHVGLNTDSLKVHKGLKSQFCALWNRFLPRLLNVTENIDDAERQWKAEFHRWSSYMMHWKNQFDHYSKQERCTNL

Row | Compound | IC50 (Cholinesterase) [µM] | IC50 (Acetylcholinesterase [1]) [µM] | inhibition [2] [%] | inhibition at 25 µM (Acetylcholinesterase [3]) [%] | IC50 [4] [µM] | Ratio IC50 [5] | Activity [6] [equiv] | IC50 (Acetylcholinesterase [7]) [µM]
1 | COc1cc(/C=C/C(=O)N2CCC(Cc3ccccc3)CC2)ccc1OCCCCCCN1CCN(c2ncccn2)CC1 | 0.68 | 13.4 | 42 | 15.2 | 68.6 | 19.7 | 0.51 | 
2 | COc1cc(/C=C/C(=O)N2CCC(Cc3ccccc3)CC2)ccc1OCCCN1CCN(Cc2ccccc2)CC1 | 1.22 | 8.4 | 50.3 |  | 41.2 | 6.9 | 0.7 | 65
3 | COc1cc(/C=C/C(=O)N2CCC(Cc3ccccc3)CC2)ccc1OCCCCCCN1CCc2ccccc2C1 | 0.88 | 9.32 | 54.7 |  | 3.47 | 10.6 | 0.49 | 21.5
4 | COc1cc(/C=C/C(=O)N2CCC(Cc3ccccc3)CC2)ccc1OCCCCCCN1CCN(c2ccccn2)CC1 | 0.95 | 15.6 | 49.9 | 18.5 | 6.9 | 16.4 | 0.38 | 
5 | COc1cc(/C=C/C(=O)N2CCC(Cc3ccccc3)CC2)ccc1OCCCN1CCN(c2ncccn2)CC1 | 5.12 | 12.6 | 46.9 |  | 45.4 | 2.5 | 0.41 | 93.5
6 | COc1cc(/C=C/C(=O)N2CCC(Cc3ccccc3)CC2)ccc1OCCCCCN1CCN(c2ncccn2)CC1 | 2.34 | 5.81 | 39.7 |  | 45.3 | 2.5 | 0.46 | 30.6
7 | COc1cc(/C=C/C(=O)N2CCC(Cc3ccccc3)CC2)ccc1OCCCN1CCc2ccccc2C1 | 0.12 | 2.21 | 55.6 |  | 2.28 | 18.4 | 0.51 | 1.89
8 | COc1cc(/C=C/C(=O)N2CCC(Cc3ccccc3)CC2)ccc1OCCCN1CCN(c2ccccn2)CC1 | 0.86 | 10.4 | 36.3 |  | 62.1 | 12.1 | 0.47 | 75.3
9 | COc1cc(/C=C/C(=O)N2CCC(Cc3ccccc3)CC2)ccc1OCCCCCCN1CCN(Cc2ccccc2)CC1 | 2.2 | 4.83 | 51.1 |  | 50.6 | 2.2 | 0.73 | 73.2

— ChEMBL document CHEMBL4011587, “Design, synthesis and evaluation of novel ferulic acid-O-alkylamine derivatives as potential multifunctional agents for the treatment of Alzheimer's disease” (Eur J Med Chem, 2017)
